Measured values reported in patent US6613875B1, “Cyclic peptide tube” (The Scripps Research Institute, priority 1993, dated 2003).
Square brackets hold non-standard residues; d marks the D form.

Assays:
[1] = Incorporation of peptide subunit into lipid bilayers of large unilamellar vesicles (absorption and fluorescence spectroscopy); assay type: physicochemical; settings: aqueous liposomal suspensions
Source text: Incorporation of the peptide subunit into lipid bilayers using large unilamellar vesicles has been established by absorption and fluorescence spectroscopy. Formation of the hydrogen-bonded transmembrane channel structure in phosphatidylcholin liposomes has been supported by FT-IR spectroscopy (FIG. 24). The observed amide-I band at 1624 cm^−1 is not only similar to the carbonyl stretching frequencies found in other nanotube structures disclosed herein, but is also consistent with the infrared spectrum of gramicidin A in similar lipid bilayers. (E. Nabedryk et al in Biophys. J. (1982), vol. 38, pages 243-249. Furthermore, the observed N-H stretching frequency at 3272 cm^−1 strongly supports the formation of a tight network of hydrogen bonds with an average intersubunit distance of 4.7 Å.
The second control peptide cyclo[-(^MeN-D-Ala-Phe)4-] which has the desirable hydrophobic surface characteristics but lacks the propensity for participating in extended hydrogen bonding network, was also designed and tested for ion transport activity. The peptide design incorporates a novel N-methylation strategy on one face of the ring structure which predisposes the subunit toward a dimeric cylindrical structure (Ghadiri, M. R., Kobayashi, K., Granja, J. R., Chadha, R., and McRee, D. E. manuscript in preparation). Such a dimeric cylindrical ensemble is approximately 10 Å thick and can not span the lipid bilayer.
The ten-residue peptide subunit employed in the present study, cyclo[-Gln-(D-Leu-Trp)4-D-Leu-], is made up of largely tryptophan and leucine residues to favor its partitioning into and self-assembly in lipid bilayers. It was synthesized on solid support^5 and characterized by ^1H NMR spectroscopy and mass spectrometry. […] This has been supported by absorption and fluorescence spectrophotometry and gel permeation studies. Formation of a hydrogen bonded transmembrane channel structure in phosphatidylcholin liposomes has been established by FT-IR spectroscopy^6. […]

[2] = Single channel conductance, micro patch clamp on planar lipid bilayers; assay type: biochemical; settings: for single channel conductance: peptide in the range of 10^−7 M in the subphase
Source text: FIG. 26 illustrates a 140 second continuous K^+ single channel conductance recording at 50 mV of the channel forming compounds indicated in FIG. 24. Open-closed transitions indicate gating mechanisms which may reflect structural flexibility or rapid assembly-disassembly of the tubular membrane channel structures. Short and long channel life times in the open state could be distinguished with values of t(short)=0.71±0.03 ms and t(long)=37.14±8.99 ms (total number of events 510) with an overall open probability P(O) of 0.29. Peptide concentration at the subphase was 1.0×10^−7 M. As is expected for any such self-assembling channel forming species, channel opening lifetimes show significant dependence on the peptide concentration. Raising the added peptide concentration in the subphase to 2.0×10^−5 M, produces open channel lifetimes of […] >30 seconds.
Formation of transmembrane channels was also inferred from its highly efficient proton transport activity. Vesicles were prepared having pH 6.5 inside and pH 5.5 in the outside bulk solution. The collapse of the imposed pH gradient in these vesicles, upon formation of the putative transmembrane channel structure, was studied by monitoring the fluorescence intensity of an entrapped pH-sensitive dye. (V.E. Carmichael et al, in J.Am. Chem. Soc. (1989), vol. 111, pages 767-769). […] Unilamellar vesicles were prepared by the reverse-phase evaporation using DPPC, OPPC, cholestrol in the ratio of 1:1:2 in a solution containing 5(6)-carboxyfluorescein (20 mM in phosphate/saline buffer: 137 mM NaCl, 2.6 mM KCl, 6.4 mM Na2HPO4, 1.4 mM KH2PO4, pH 6.5) according to the method of F. Szoka et al. in Proc. Natl. Acad. Sci. USA (1978), vol. 75, pages 4194-4198. Liposomes were then sized by multiple extrusions through Nucleopore® polycarbonate membranes (10 times, 50 psi, using 0.8 and 2×0.4 micron filter stacks) and the untrapped 5(6)-carboxyfluorescein was removed by size exclusion chromatography (Sephadex G-25 column 1×30 cm) using the same phosphate/saline buffer according to the method of F. Olson et al. in Biochim. Biophys. Acta (1979), vol. 557, pages 9-23. Vesicles formed in this way are approximately 150 nanometer in diameter as determined by electron microscopy. (R. R. C. New, Ed. Liposomes, Oxford university Press, 1990). In each experiment, 70 ml of the stock vesicle solution (3.5×10^−3 M in phospholipids) was added to pH 5.5 buffer (1.3 ml, 137 mM NaCl, 2.6 mM KCl, 6.4 Na2HPO4, 1.4 KH2PO4) and placed in a 1 cm quartz cuvett inside a stirring thermojacketed sample holder of the florescence instrument and equilibrated at 25° C. for 15 minutes with gentle stirring. To the cuvett, through an injector port, […] of the channel forming compounds in DMSO was added with continuous fluorescence monitoring at 520 nm (excitation at 470 nm). The observed data were then normalized for comparison into the fractional change in fluorescence ((I0−It)/(I0−I∞)) (V. E. Carmichael et al, in J.Am. Chem. Soc. (1989), vol. 111, pages 767-769)). […] The lipid bilayers used were formed on the tip of patch pipettes using a mixture of synthetic POPE: POPS (4:1) (1-palmitoyl-2-oleoyl-Sn-glycero-3-phosphatidylethano lamine and -serine). Five to 10 ml of the peptide solution (1.0×10^−7 or 2.0×10^−6 M in 25% DMSO in buffer solution containing 500 mM NaCl or KCl, 5 mM CaCl2, 10 mM HEPES, pH 7.5) was added to 150 ml subphase volume resulting in spontaneous partitioning of the peptide into the membrane. Ion channels formed spontaneously after peptide was added to the subphase of lipid bilayers. […] Data acquisition and analysis were performed on a Gateway 2000/486 computer using pClamp software package and TL-1 labmaster interface. Acquisition rate was 0.1 ms and data were filtered at 2 kHz.
The ultimate test in establishing and quantitating the transport efficiency of a membrane channel structure is to measure its single channel conductance using micro patch clamp techniques. […]

[3] = K^+ recording at 50 mV, peptide 1.0×10^−7 M in subphase, 510 events

| Substance | partitioning / incorporation into lipid bilayers [1] | ion transport rate / efficiency ([2]; single ion channel recordings) | single channel conductance ([2]; 500 mM KCl) [pS] | single channel conductance ([2]; 500 mM NaCl) | actual rate of channel-mediated ion transport ([2]; K^+) | overall open probability P(O) ([2]; K^+ recording at 50 mV, peptide 1.0×10^−7 M in subphase) | channel life time in the open state, t(long) [2, 3] [ms] | channel life time in the open state, t(short) [2, 3] [ms] | actual rate of channel-mediated ion transport ([2]; Na^+) | rate of ion transport relative to gramicidin A under similar conditions ([2]; gramicidin A value from literature) | dependence of single channel conductance on applied voltage ([2]; measured range of 10-100 mV) | open channel lifetimes ([2]; peptide concentration in the subphase raised to 2.0×10^−5 M) [s] | ion channel activity observed (membranes with activity) ([2]; symmetrical solutions of 500 mM NaCl or KCl, 5 mM CaCl2, 10 mM HEPES, pH 7.5) |
| --- | --- | --- | --- | --- | --- | --- | --- | --- | --- | --- | --- | --- | --- |
| cyclo[-Gln-(D-Leu-Trp)4-D-Leu-] (cyclo(Q[dL]W[dL]W[dL]W[dL]W[dL]); SMILES CC(C)C[C@H]1NC(=O)[C@H](CCC(N)=O)NC(=O)[C@@H](CC(C)C)NC(=O)[C@H](Cc2c[nH]c3ccccc23)NC(=O)[C@@H](CC(C)C)NC(=O)[C@H](Cc2c[nH]c3ccccc23)NC(=O)[C@@H](CC(C)C)NC(=O)[C@H](Cc2c[nH]c3ccccc23)NC(=O)[C@@H](CC(C)C)NC(=O)[C@H](Cc2c[nH]c3ccccc23)NC1=O) [10-residue cyclic peptide forming 10 Å pores that transport glucose] | rapid incorporation | > 10^7 ions.sec^−1 |  |  |  |  |  |  |  |  |  |  |  |
| cyclo[-(Trp-D-Leu)3-Gln-D-Leu-] (cyclo(W[dL]W[dL]W[dL]Q[dL]); SMILES CC(C)C[C@H]1NC(=O)[C@H](CCC(N)=O)NC(=O)[C@@H](CC(C)C)NC(=O)[C@H](Cc2c[nH]c3ccccc23)NC(=O)[C@@H](CC(C)C)NC(=O)[C@H](Cc2c[nH]c3ccccc23)NC(=O)[C@@H](CC(C)C)NC(=O)[C@H](Cc2c[nH]c3ccccc23)NC1=O) [eight residue ion channel forming cyclic peptide, approximately 7.5 Å pore] | rapid partitioning |  | ~65 | approximately 55 pS | 2.2×10^7 ion.sec^−1 | 0.29 | 37.14 ± 8.99 | 0.71 ± 0.03 | 1.8×10^7 ion.sec^−1 | three | independent of the applied voltage | > 30 | 14 out of 22 |
